What was measured:
HepG2 cells [1] = assay: LC-MS/MS targeted intracellular metabolomics; type: cell-based, human; conditions: Suppl Fig 10, C3 (C2 for Aroclor), 48 h
Method: Metabolite profiling of cells was performed directly in the same 96-well plate according to a standardized protocol described below. In order to prevent any interaction with the cell material, the automatic sampler was adjusted to pick up the sample from the supernatant at a specified depth avoiding the contact with the bottom of the plate.
After the initial quenching step (50 μL isopropanol 80%), additional 70 μL of isopropanol 80%, containing internal standards (methionine-D3, tryptophan-D5, arginine-13C6-15N4, Boc-Ala-Gly-Gly-Gly-OH, coenzyme Q1, coenzyme Q2, coenzyme Q4) were added to each well. The internal standards were used for quality control by visual inspection (signal intensity, peak shape, retention time); they were not used for normalization. Afterwards, plates were shaken for 5 min, 750 rpm at 20 °C, and placed for 30 s in the ultrasonic device. Then, the plates were centrifugated for 10 min, at 5485 g, 15 °C. Further, 2.5 μL of the extract were injected each for reversed-phase and hydrophilic interaction liquid chromatography followed by MS/MS detection (AB Sciex QTrap 6500+) using the positive and negative ionization mode. For reverse-phase high-performance liquid chromatography (RP-HPLC, Ascentis Express C18, 5 cm × 2.1 mm, 2.7 μm Supelco), gradient elution was performed with mobile phase A, water/methanol/0.1 M ammonium formate (1:1:0.02, w/w), and B, methyl-tert-butylether/2-propanol/methanol/0.1 M ammonium formate/formic acid (4:2:1:0.07:0.035, w/w) 5.9 min linear gradient: 0 min 100% A, 0.5 min 75% A, 5.9 min 10% A; followed by 0% A until 6.7 min; re-equilibration at 100% A until 7.7 min; flow rate 600 μL/min; column temperature 40 °C HILIC (ZIC-HILIC, 2.1 × 100 mm, 3.5 μm, Supelco) gradient elution was performed with mobile phase C, acetonitrile/water (99:1, v/v) with 0.2% (v) acetic acid, and D, 7 mM ammonium acetate with 0.2% (v) acetic acid (5.0 min linear gradient: 0 min 100% C, 5 min 10% C; followed by a linear gradient back to 100%C until 6.5 min; re-equilibration at 100% C until 7.5 min; flow rate 600 μL/min; column temperature 40 °C.). Two LC-MS systems with identical configuration were used for the analysis. Normalization to lyophilized reference samples (see below) was used to compensate for variation from between analytical batches. The efficiency of this normalization procedure was checked by principal component analysis (PCA), confirming that Pool samples from different analytical batches clustered together.
Reference samples derived from lyophilized untreated HepG2 cells (technical control samples) were measured in parallel throughout the entire analytical process. Data were normalized against the median of these lyophilized HepG2 cells reference samples, to give normalized ratios (performed for each sample per metabolite). This compensated for inter- and intra-instrumental variation. To correct for small differences in cell numbers within and between different treatment groups, data were also normalized to the within sample median, as described in detail by (Ramirez et al. [2018]). For intracellular metabolomic analysis, the median of each sample was calculated across all the 221 measured metabolites.
To generate metabolic profiles for the different treatments, heteroscedastic t test (Welch test) was applied to log-transformed normalized metabolite data to compare treated groups with their respective controls.
Principal component analysis (PCA) and hierarchical clustering (HCA) analyses were performed using R software environment (https://www.r-project.org/). PCA was conducted using the ropls package (Thévenot et al. [2015]) with log10-transformed input data and standard scaling. HCA was performed using the pvclust package (Suzuki et al. [2019]), (https://CRAN.R-project.org/package=pvclust). Input: log10(Ratio), clustering method: Ward D2, distance method: Manhattan, bootstrapping: 10000 times.

HepG2 cells [2] = assay: Cytotoxicity (CellTox Green) in parallel with metabolomics experiments; conditions: intermediate concentration (C3; C2 for aroclor), 48 h
Method: Commercially available cytotoxicity (CellTox™ Green) and ATP content based (CellTiter-Glo®) assays (Promega GmbH, Walldorf, Germany) were multiplexed in a single 96-well plate following the manufacturer’s instructions. For positive controls, lysis solution 25X was added in wells containing vehicle control treated cells (0.5% DMSO). Then, 10X CellTox Green reagent was added in all wells, plates were shaken for 1 min, and incubated in the dark for 15 min at room temperature. […] Afterwards, wells were washed with PBS, 100 μL of Dulbecco’s MEM media were added to each well and subsequently 100 μL of 1X CellTiter-Glo were added. Plates were shaken for 2 min and incubated in the dark for 8 min at room temperature. Luminescence was measured in the GloMax®-Multi Detection System (Promega) and was normalized to the values of the vehicle control. Cytotoxicity and ATP cell viability analysis were carried out for range finder pre-tests and in parallel with metabolomics experiments in plates handled and treated exactly as the ones used for metabolite profiling.

O=c1cc(-c2ccccc2)oc2ccc3ccccc3c12 [β-naphthoflavone]
Carnitine level vs controls (HepG2 cells [1]): 0.88 | Ceramide (d16:1.C24:0) level vs controls (HepG2 cells [1]): 1.20 | Ceramide (d17:1.C24:0) level vs controls (HepG2 cells [1]): 1.24 | Ceramide (d18:1.C20:0) level vs controls (HepG2 cells [1]): 0.73 | Ceramide (d18:1.C22:1) level vs controls (HepG2 cells [1]): 0.65 | Ceramide (d18:1.C24:1) level vs controls (HepG2 cells [1]): 0.64 | Ceramide (d18:2.C16:0) level vs controls (HepG2 cells [1]): 1.48 | Ceramide (d18:2.C23:0) level vs controls (HepG2 cells [1]): 1.56 | Ceramide (d18:2.C24:0) level vs controls (HepG2 cells [1]): 1.41 | Ceramide (d18:2.C24:1) level vs controls (HepG2 cells [1]): 1.23 | Choline plasmalogen (C36:4) level vs controls (HepG2 cells [1]): 0.82 | Choline plasmalogen (C36:5) level vs controls (HepG2 cells [1]): 0.84 | Cysteinylglycine level vs controls (HepG2 cells [1]): 3.16 | Flavin adenine dinucleotide (FAD) level vs controls (HepG2 cells [1]): 1.63 | Glutathione (GSH) level vs controls (HepG2 cells [1]): 2.59 | Hexanoylcarnitine level vs controls (HepG2 cells [1]): 1.02 | Isopentenyl pyrophosphate (IPP) level vs controls (HepG2 cells [1]): 2.43 | Lysophosphatidylcholine (C14:0) level vs controls (HepG2 cells [1]): 1.48 | Lysophosphatidylcholine (C16:0) level vs controls (HepG2 cells [1]): 2.15 | Lysophosphatidylcholine (C20:0) level vs controls (HepG2 cells [1]): 2.34 | Lysophosphatidylcholine (C20:1) level vs controls (HepG2 cells [1]): 2.23 | Lysophosphatidylcholine (C20:4) level vs controls (HepG2 cells [1]): 1.68 | Lysophosphatidylcholine (C22:0) level vs controls (HepG2 cells [1]): 1.99 | Lysophosphatidylcholine (C24:0) level vs controls (HepG2 cells [1]): 2.67 | Lysophosphatidylcholine (C24:1) level vs controls (HepG2 cells [1]): 2.34 | Lysophosphatidylethanolamine (C16:0) level vs controls (HepG2 cells [1]): 1.77 | Lysophosphatidylethanolamine (C18:0) level vs controls (HepG2 cells [1]): 2.25 | N-Acetylglucosamine level vs controls (HepG2 cells [1]): 0.79 | N-Acetylserine level vs controls (HepG2 cells [1]): 1.03 | O-Acetylcarnitine level vs controls (HepG2 cells [1]): 0.87 | Pantothenic acid level vs controls (HepG2 cells [1]): 0.96 | Phosphatidylcholine (C32:0) level vs controls (HepG2 cells [1]): 1.16 | Phosphatidylcholine (C34:0) level vs controls (HepG2 cells [1]): 1.39 | Phosphatidylcholine (C34:2) level vs controls (HepG2 cells [1]): 0.77 | Phosphatidylcholine (C34:3) level vs controls (HepG2 cells [1]): 0.60 | Phosphatidylcholine (C36:0) level vs controls (HepG2 cells [1]): 1.62 | Phosphatidylcholine (C36:1) level vs controls (HepG2 cells [1]): 1.21 | Phosphatidylcholine (C36:2) level vs controls (HepG2 cells [1]): 0.80 | Phosphatidylcholine (C36:3) level vs controls (HepG2 cells [1]): 0.87 | Phosphatidylcholine (C36:4) level vs controls (HepG2 cells [1]): 1.08 | Phosphatidylcholine (C38:6) level vs controls (HepG2 cells [1]): 1.09 | Phosphatidylethanolamine (C32:0) level vs controls (HepG2 cells [1]): 1.63 | Phosphatidylethanolamine (C34:0) level vs controls (HepG2 cells [1]): 1.79 | Phosphatidylethanolamine (C34:1) level vs controls (HepG2 cells [1]): 1.38 | Phosphatidylethanolamine (C34:2) level vs controls (HepG2 cells [1]): 0.93 | Phosphatidylethanolamine (C36:0) level vs controls (HepG2 cells [1]): 2.10 | Phosphatidylethanolamine (C36:1) level vs controls (HepG2 cells [1]): 1.81 | Phosphatidylethanolamine (C36:3) level vs controls (HepG2 cells [1]): 0.84 | Phosphatidylethanolamine (C38:5) level vs controls (HepG2 cells [1]): 0.93 | Phosphatidylethanolamine (C40:7) level vs controls (HepG2 cells [1]): 0.79 | Proline level vs controls (HepG2 cells [1]): 0.64 | Propionylcarnitine level vs controls (HepG2 cells [1]): 1.03 | Sphingomyelin (d32:1) level vs controls (HepG2 cells [1]): 0.84 | Sphingomyelin (d35:1) level vs controls (HepG2 cells [1]): 1.06 | Sphingomyelin (d38:2) level vs controls (HepG2 cells [1]): 0.94 | Sphingomyelin (d40:2) level vs controls (HepG2 cells [1]): 0.77 | Sphingomyelin (d41:2) level vs controls (HepG2 cells [1]): 0.85 | Sphingomyelin (d42:2) level vs controls (HepG2 cells [1]): 0.74 | Triacylglycerol (C30:0.C18:1) level vs controls (HepG2 cells [1]): 0.36 | Triacylglycerol (C32:0.C16:1) level vs controls (HepG2 cells [1]): 0.41 | Triacylglycerol (C32:1.C16:1) level vs controls (HepG2 cells [1]): 0.26 | Triacylglycerol (C34:0.C18:1) level vs controls (HepG2 cells [1]): 0.47 | Triacylglycerol (C34:1.C16:0) level vs controls (HepG2 cells [1]): 0.39 | Triacylglycerol (C34:1.C18:1) level vs controls (HepG2 cells [1]): 0.47 | Triacylglycerol (C34:2.C18:0) level vs controls (HepG2 cells [1]): 0.40 | Triacylglycerol (C34:2.C18:1) level vs controls (HepG2 cells [1]): 0.24 | Triacylglycerol (C36:1.C18:0) level vs controls (HepG2 cells [1]): 0.46 | Triacylglycerol (C36:1.C18:1) level vs controls (HepG2 cells [1]): 0.35 | Triacylglycerol (C36:1.C18:2) level vs controls (HepG2 cells [1]): 0.46 | Triacylglycerol (C36:2.C18:1) level vs controls (HepG2 cells [1]): 0.41 | Triacylglycerol (C36:3.C18:1) level vs controls (HepG2 cells [1]): 0.38 | Tyrosine level vs controls (HepG2 cells [1]): 1.14 | myo-Inositol-2-phosphate level vs controls (HepG2 cells [1]): 0.65 | Sphingomyelin (d34:2) level vs controls (HepG2 cells [1]; first of two lines with this name): 1.05 | Sphingomyelin (d34:2) level vs controls (HepG2 cells [1]; second of two lines with this name): 1.07 | cytotoxicity (CellTox Green) (HepG2 cells [2]): low cytotoxicity

Reference: PMC10693528, “A high-throughput metabolomics in vitro platform for the characterization of hepatotoxicity” (Cell Biology and Toxicology, 2023)
